# Numbers after ± are expanded uncertainties.
# Experiments:
# [1] = for surface tension liquid-gas: Maximal bubble pressure; for mass density: 101.33 kPa, Vibrating tube method
# [2] = refractive index (Na D-line) (dimensionless); conditions: 298.15 K; 101.33 kPa; Liquid; Standard Abbe refractometry
# [3] = xn = mol fraction of the nth substance listed; conditions: 298.15 K, 101 kPa, Liquid, Vibrating tube method
smiles,measurement,setting,value
"Cc1ccc(C)o1 [2,5-dimethylfuran]",surface tension liquid-gas,[1]; 293.15 K,25.42 ± 0.27 mN/m
same,mass density,"[1]; 293.15 K, Liquid",901.18 ± 0.08 kg/m3
same,mass density,"[1]; 298.15 K, Liquid",895.7 ± 0.08 kg/m3
same,surface tension liquid-gas,[1]; 303.15 K,24.04 ± 0.26 mN/m
same,mass density,"[1]; 303.15 K, Liquid",890.37 ± 0.08 kg/m3
same,surface tension liquid-gas,[1]; 313.15 K,22.73 ± 0.26 mN/m
same,mass density,"[1]; 313.15 K, Liquid",879.43 ± 0.08 kg/m3
same,surface tension liquid-gas,[1]; 323.15 K,21.41 ± 0.26 mN/m
same,mass density,"[1]; 323.15 K, Liquid",868.36 ± 0.09 kg/m3
same,vapor or sublimation pressure,"[1]; 331.46 K, Liquid, Ebulliometric method (Recirculating still)",30.01 ± 0.08 kPa
same,surface tension liquid-gas,[1]; 333.15 K,20.22 ± 0.25 mN/m
same,mass density,"[1]; 333.15 K, Liquid",857.1 ± 0.09 kg/m3
same,vapor or sublimation pressure,"[1]; 335.51 K, Liquid, Ebulliometric method (Recirculating still)",35.01 ± 0.08 kPa
same,vapor or sublimation pressure,"[1]; 339.09 K, Liquid, Ebulliometric method (Recirculating still)",40.01 ± 0.08 kPa
same,vapor or sublimation pressure,"[1]; 342.32 K, Liquid, Ebulliometric method (Recirculating still)",45.01 ± 0.09 kPa
same,surface tension liquid-gas,[1]; 343.15 K,19.1 ± 0.25 mN/m
same,mass density,"[1]; 343.15 K, Liquid",845.67 ± 0.1 kg/m3
same,vapor or sublimation pressure,"[1]; 345.26 K, Liquid, Ebulliometric method (Recirculating still)",50.01 ± 0.09 kPa
same,vapor or sublimation pressure,"[1]; 348 K, Liquid, Ebulliometric method (Recirculating still)",55.01 ± 0.1 kPa
same,vapor or sublimation pressure,"[1]; 350.53 K, Liquid, Ebulliometric method (Recirculating still)",60.01 ± 0.1 kPa
same,vapor or sublimation pressure,"[1]; 352.9 K, Liquid, Ebulliometric method (Recirculating still)",65.01 ± 0.11 kPa
same,surface tension liquid-gas,[1]; 353.15 K,18.05 ± 0.25 mN/m
same,mass density,"[1]; 353.15 K, Liquid",834.01 ± 0.1 kg/m3
same,vapor or sublimation pressure,"[1]; 355.13 K, Liquid, Ebulliometric method (Recirculating still)",70.01 ± 0.11 kPa
same,vapor or sublimation pressure,"[1]; 357.24 K, Liquid, Ebulliometric method (Recirculating still)",75.01 ± 0.12 kPa
same,surface tension liquid-gas,[1]; 358.15 K,17.5 ± 0.25 mN/m
same,mass density,"[1]; 358.15 K, Liquid",828.13 ± 0.1 kg/m3
same,vapor or sublimation pressure,"[1]; 359.24 K, Liquid, Ebulliometric method (Recirculating still)",80.01 ± 0.12 kPa
same,vapor or sublimation pressure,"[1]; 361.13 K, Liquid, Ebulliometric method (Recirculating still)",85.01 ± 0.12 kPa
same,vapor or sublimation pressure,"[1]; 362.95 K, Liquid, Ebulliometric method (Recirculating still)",90.01 ± 0.13 kPa
same,vapor or sublimation pressure,"[1]; 364.69 K, Liquid, Ebulliometric method (Recirculating still)",95.01 ± 0.13 kPa
same,vapor or sublimation pressure,"[1]; 366.79 K, Liquid, Ebulliometric method (Recirculating still)",101.33 ± 0.14 kPa
same,Normal boiling temperature,"[1]; Liquid, Ebulliometric method (Recirculating still)",93.68 ± 0.22 °C
same,refractive index,[2],1.4404 ± 0.00031
"Cc1ccc(C)o1 [2,5-dimethylfuran] + CCCCCC",mass density,[3]; x2 = 0,895.7 ± 0.72 kg/m3
same,mass density,[3]; x2 = 0.058,878.43 ± 0.92 kg/m3
same,mass density,[3]; x2 = 0.103,865.07 ± 0.9 kg/m3
same,mass density,[3]; x2 = 0.169,846.48 ± 0.87 kg/m3
same,mass density,[3]; x2 = 0.211,834.86 ± 0.85 kg/m3
same,mass density,[3]; x2 = 0.284,815.33 ± 0.83 kg/m3
same,mass density,[3]; x2 = 0.326,804.35 ± 0.81 kg/m3
same,mass density,[3]; x2 = 0.373,792.42 ± 0.8 kg/m3
same,mass density,[3]; x2 = 0.425,779.22 ± 0.78 kg/m3
same,mass density,[3]; x2 = 0.474,767.35 ± 0.77 kg/m3
same,mass density,[3]; x2 = 0.523,755.53 ± 0.75 kg/m3
same,mass density,[3]; x2 = 0.577,743.04 ± 0.73 kg/m3
same,mass density,[3]; x2 = 0.671,722.12 ± 0.71 kg/m3
same,mass density,[3]; x2 = 0.73,709.38 ± 0.69 kg/m3
same,mass density,[3]; x2 = 0.854,683.63 ± 0.67 kg/m3
same,mass density,[3]; x2 = 0.915,671.56 ± 0.65 kg/m3
same,mass density,[3]; x2 = 0.979,659.09 ± 0.64 kg/m3
CCCCCC [hexane] + Cc1ccc(C)o1,mass density,[3]; x1 = 1,655.17 ± 0.51 kg/m3

# — the NIST ThermoML archive (doi:10.1021/je300631s)
